What was measured:
[1] = test system: chick embryo vitelline capillaries; experiment: chick embryo vitelline capillary regression assay; assay type: in vivo
Method: Using the chick embryo vitelline capillaries assay, compounds were tested for their ability to induce capillary regression. Each compound was applied in 0.1 ml of 15% Ficol 400 and PBS onto the embryo, and vascular regression was assessed after 60 minutes.
The 3-day chick embryo consists of an embryonic disc from which numerous vessels emerge and return, forming a "FIG. 8"-shaped structure--the embryo in the center with vascular loops extending outward over both poles. […] Following a lag period of around 15 minutes, the constriction of continuity between capillary and secondary vessels, generally on the "venous" side, was observed. Continued pulsatile blood flow progressed, resulting in a "swelling" of the blind tube, followed by a pinching off of the remaining connection and formation of an enclosed vascular sac resembling a "blood island." This process progressed until only the largest vessels remained intact.

B16 melanoma = experiment: suppression of growth of B16 melanoma in C57B mice; assay type: in vivo, mouse; details: 10 mg/kg every 3 days alone, FIG. 12
Method: The growth of B16 melanoma in C57B mice is dependent upon neovascularization.
Using the growth of B16 melanoma cells in C57B mice, a recognized model for the evaluation of inhibitors of angiogenesis on the growth of cancers, the effects of subcutaneous, intraperitoneal and oral administration of squalamine were evaluated.
Based on the idea that tumor growth involves both the clonal expansion of a malignant cell along with the development of a supporting vascular supply, a combination of compound 1436 with squalamine was tested to determine whether it would achieve a synergistic effect on solid tumor growth. This concept was evaluated in the B16 melanoma model.
Animals were implanted with B16 melanoma followed by treatment with compound 1436 or 1256 administered in a combined schedule or separately. […] Thus, a combination of these two compounds achieves a therapeutic benefit in tumors dependent on neovascularization that may prevent metastatic spread.

[2] = test system: Human ovarian carcinoma SKOV3; experiment: growth inhibition in vitro; assay type: cell-based; details: SKOV3, 10 μg/ml
Method: (§1) As set forth in Table 7 below, all malignant tumors evaluated in tissue culture, endothelial cells and vascular smooth muscle cells were sensitive to inhibition. Thus, compound 1436 has application in the control of growth factor dependent proliferation of many types of tissue.
Using the assay described above, the anticancer effects of compound 1437 against several cancer lines was assessed.

[3] = test system: Human colon carcinoma HT29; experiment: growth inhibition in vitro; assay type: cell-based; details: HT29, 10 μg/ml
Description: as §1

[4] = test system: Human colon carcinoma SW948; experiment: growth inhibition in vitro; assay type: cell-based; details: SW948, 10 μg/ml
Description: as §1

[5] = test system: Human coronary artery smooth muscle cells; experiment: growth inhibition in vitro; assay type: cell-based; details: 10 μg/ml
Description: as §1

Human melanoma WM 1617 = experiment: growth inhibition in vitro; assay type: cell-based; details: WM 1617, 10 μg/ml
Description: as §1

[6] = test system: Human microvascular endothelial cells; experiment: growth inhibition in vitro; assay type: cell-based; details: 10 μg/ml
Description: as §1

Lewis lung carcinoma = experiment: growth inhibition in vitro; assay type: cell-based; details: 10 μg/ml
Description: as §1

Murine B16 melanoma = experiment: growth inhibition in vitro; assay type: cell-based; details: Murine B16 melanoma, 10 μg/ml
Description: as §1

Murine L1210 leukemia = experiment: growth inhibition in vitro; assay type: cell-based; details: 10 μg/ml
Description: as §1

[7] = test system: bovine pulmonary endothelial cells; experiment: growth inhibition in vitro; assay type: cell-based; details: 10 μg/ml
Description: as §1

[8] = test system: human umbilical venous endothelial cells; experiment: growth inhibition in vitro; assay type: cell-based; details: 10 μg/ml
Description: as §1

[9] = test system: L1210 lymphoblastic leukemia cells; experiment: mouse model of leukemia; assay type: in vivo; details: highest dose (10 mg/kg every 3 days ip), FIG. 11
Description: C57B mice were inoculated with L1210 lymphoblastic leukemia cells at an inoculum that causes leukemia in 100% of animals.

HIV clinical isolate = experiment: inhibition of HIV replication in PHA-stimulated lymphocytes (HIV P-24 antigen Elisa); assay type: cell-based; details: 20 μM
Description: (§2) Results are tabulated below.

[10] = viability of lymphocytes in HIV test; assay type: cell-based; details: human
Description: as §2

[11] = effect on fasting blood glucose in mice; assay type: in vivo, mouse (male CD-1); details: i.v.
Method: To study the effect of steroid administrator or the NHE responsible for secretion of insulin, several of the aminosterols from shark liver were administered to fasting mice. Male CD-1 mice were assigned to one of four treatment groups. Whole blood glucose was tested using glucometer (Lifescan Glucometer II and One Touch test strips). Statistical analysis was via one-way analysis of variance (ANOVA) followed by subsequent Bonferonni's t-test.

[12] = test system: human coronary artery smooth muscle; experiment: proliferation of human coronary artery smooth muscle in vitro; assay type: cell-based; details: FIG. 15
Description: Aminosterols of the invention may also have utility in inhibiting the growth factor mediated proliferation of smooth muscle within the artery. Following coronary angioplasty, reocclusion commonly occurs, secondary to reparative proliferation of the vascular smooth muscle within the wall of the surgically manipulated blood vessel. This process generally takes place over the course of 7-10 days. To evaluate whether an agent could prevent the growth factor mediated proliferation of smooth muscle within the artery, compound 1436 was evaluated in vitro for its effect on the proliferation of human coronary artery smooth muscle. Results for compound 1436 are shown in FIG. 13, and those for squalamine are shown in FIG. 14, with FIG. 15 being a composite logarithmic plot.

[13] = effect on growth and weight gain of growing mice; assay type: in vivo, mouse (C57B)
Method: Animals were dosed QTD (i.p.) starting on Day 1. […] Animals receiving 5 mg/kg QTD experienced about a 50% reduction in growth, compared to untreated controls, while animals receiving 1 mg/kg QTD were affected by about 10%. […] They appeared very much like hypophysectamized animals might appear.

[14] = effect on arterial resistance in the rat; assay type: in vivo; details: 5 mg/kg i.v.
Method: A 200-g rat was catheterized in the right carotid artery, and the compound was introduced over a ten-second period to a total dosage of 5 mg/kg. Within 30 seconds, the mean arterial pressure had fallen from about 100 mm Hg to about 70 mm Hg, with a marked reduction in pulse pressure from about 40 mm to about 10 mm. […] If cardiac output was basically unaffected, reduction in blood pressure would have resulted principally from a reduction in system resistance.
At that time, 40 μg of noradrenaline was introduced.

[15] = test system: heart of a juvenile Xenopus laevis frog; experiment: persistence of beating of isolated frog heart; details: 10 μg/ml
Method: To determine if compound 1436 has such utility, the following experiment was performed. The heart of a juvenile Xenopus laevis frog was dissected from the living animal. The heart was placed into a Petri dish containing Krebs-Ringer buffer with adrenaline 50 μg/ml, and examined with the naked eye. At room temperature, the heart continued beating in a coordinated fashion (atrial beat followed by ventricular beat) for about one hour. In the presence of 10 μg/ml of compound 1436, spontaneous beating persisted up to 24 hours.

human melanoma = experiment: effect on growth of human melanoma over time / mode of cell death; assay type: cell-based
[16] = test system: stage 59-60 Xenopus tadpole; details: 10 μg/mL, Table II
[17] = test system: stage 59-60 Xenopus tadpole; experiment: Xenopus tadpole assay; details: 10 μg/ml
human lymphocytes = experiment: inhibition of mitogen (PHA)-stimulated growth of human T-cells; details: Homo sapiens, Lymphocyte, read-out: inhibition of blast transformation
Method: Specific assays were used to identify steroids with a particular biological activity, such as an assay for inhibition of mitogen-stimulated growth of human T-cells.
Human heparinized blood, freshly collected, was introduced into tissue culture flasks containing 10 μg/ml phytohaemagglutinin (PHA) in RPMI medium with 10% FCS. Various purified steroids were introduced subsequently at concentrations of 1, 5, and 10 μg/ml. Cultures were incubated for 72 hours, after which time colcemid was added to 1 μg/ml. Cultures were maintained for an additional 2 hours, and cells collected. Miotic figures were estimated using standard cytochemical techniques, following Giemsa staining.

rabbit NHE3 = rabbit NHE3 (Oryctolagus cuniculus, UniProt P26432); details: 10 μg/ml, acid preloaded 40 mM NH4Cl, FIG. 10
Chain of rabbit NHE3 (P26432 30-832): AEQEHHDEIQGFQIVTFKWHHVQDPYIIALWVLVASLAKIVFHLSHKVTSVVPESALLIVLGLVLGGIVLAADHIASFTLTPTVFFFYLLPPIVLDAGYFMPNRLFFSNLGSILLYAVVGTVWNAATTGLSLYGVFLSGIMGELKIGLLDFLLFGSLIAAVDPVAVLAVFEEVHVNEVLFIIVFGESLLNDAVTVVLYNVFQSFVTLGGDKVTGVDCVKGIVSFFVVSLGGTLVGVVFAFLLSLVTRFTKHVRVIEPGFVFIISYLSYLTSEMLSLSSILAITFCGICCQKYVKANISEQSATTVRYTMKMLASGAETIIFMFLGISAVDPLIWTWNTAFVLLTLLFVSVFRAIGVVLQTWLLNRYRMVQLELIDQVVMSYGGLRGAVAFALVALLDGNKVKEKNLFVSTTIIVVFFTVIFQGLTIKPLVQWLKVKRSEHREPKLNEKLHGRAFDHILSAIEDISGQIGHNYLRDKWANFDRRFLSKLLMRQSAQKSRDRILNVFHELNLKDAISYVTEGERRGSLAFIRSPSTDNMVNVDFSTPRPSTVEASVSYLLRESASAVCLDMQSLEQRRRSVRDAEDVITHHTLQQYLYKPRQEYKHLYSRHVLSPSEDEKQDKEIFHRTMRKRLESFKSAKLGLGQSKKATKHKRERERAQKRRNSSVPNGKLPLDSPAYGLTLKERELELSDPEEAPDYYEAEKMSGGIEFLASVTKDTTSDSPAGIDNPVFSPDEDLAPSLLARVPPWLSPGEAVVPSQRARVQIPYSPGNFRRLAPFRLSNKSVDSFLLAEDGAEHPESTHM
Method: Internal pH was measured either following acid loading or in the absence of an acid-loading challenge, with the results shown in FIGS. 1A and 1B.
Specifically, PS120 fibroblasts transfected with rabbit NHE3 were grown in supplemented Dulbecco's-modified Eagle's medium as described by Levine et al., J. Biol. Chem. 268, 1993, 25527-25535. […] For cells not acid-preloaded, the actual internal pH value was monitored as a function of time following addition of squalamine, with the results depicted in FIG. 1B.
PS120 fibroblasts transfected with rabbit NHE3 were grown and acid preloaded by exposure to 40 mM NH4 Cl as described above in conjunction with FIGS. 1A and 1B. Internal cellular pH changes expressed as the rate of pH recovery as a function of restored extracellular sodium ion concentration following exposure to 10 μg/ml of the compound were assayed with the fluorescent dye BCECF-AM as described above.

## CC(C)[C@@H](CC[C@@H](C)[C@H]1CC[C@H]2[C@@H]3[C@H](O)C[C@H]4C[C@@H](NCCCNCCCCNCCCN)CC[C@]4(C)[C@H]3CC[C@]12C)OS(=O)(=O)O [Compound 1436]
[1]
  vitelline capillary regression, potency in words: about the same potency as squalamine
B16 melanoma
  impact on tumor volume: no significant impact on tumor volume
[2]
  cancer cells inhibited in vitro: INHIBITED
[3]
  cancer cells inhibited in vitro: INHIBITED
[4]
  cancer cells inhibited in vitro: INHIBITED
[5]
  non-transformed cells inhibited in vitro: INHIBITED
Human melanoma WM 1617
  cancer cells inhibited in vitro: INHIBITED
[6]
  non-transformed cells inhibited in vitro: INHIBITED
Lewis lung carcinoma
  cancer cells inhibited in vitro: INHIBITED
Murine B16 melanoma
  cancer cells inhibited in vitro: INHIBITED
Murine L1210 leukemia
  cancer cells inhibited in vitro: INHIBITED
[7]
  non-transformed cells inhibited in vitro: INHIBITED
[8]
  non-transformed cells inhibited in vitro: INHIBITED
[9]
  survival of mice bearing L1210 leukemia: significant prolongation of life
HIV clinical isolate
  P-24 Elisa: 9
[10]; 0.5 μM
  viability at 168 h, 0.5 µM: 91%
[10]; 10 μM
  viability at 168 h, 10 µM: 95%
[10]; 10 μg/ml, read-out: lymphocyte viability
  viability at 168 h: 95%
[10]; 20 μM
  viability at 168 h, 20 µM: 90.1%
[11]
  hyperglycemia: caused hyperglycemia in mice
[12]
  growth of human coronary artery smooth muscle: suppress in vitro the growth
[13]; 1 mg/kg QTD i.p.
  reduction in growth: about 10%
[13]; 10 mg/kg QTD i.p., after 6 doses, about 1 month
  suppression of growth of mice: growth was almost completely inhibited
[13]; mouse, in vivo
  apparent health of treated animals: all were active, normally proportioned, not-cachectic, and in excellent apparent clinical health
[14]
  duration of effect followed without significant change: 30 min
  heart rate: no significant increase in heart rate
[15]
  atrial pacemaker and conduction: remained vigorous
Human melanoma
  mode of cell death: same highly selective mechanism of killing
[16]
  Tadpole M (merarocytes): +
[17]
  time to death of tadpole: about 2 hours
[17]; about 1 hour
  tadpole response: Gradual reduction in overall activity. Heart beat remained strong, suggesting nervous system depression. Melanocytes over head and tail began to swell, first exhibiting visibly distinct nuclei, followed by rupture into fragments
Human lymphocytes
  inhibition at 10 µg/mL: > 75%
Rabbit NHE3
  inhibition of rabbit NHE3 (rate of pH recovery): inhibit rabbit NHE3

Source: patent US5763430A, “Method of treating a viral infection by administering a steroid compound” (priority 1995, dated 1998)
